Data taken from publication PMC8704707 (Pharmaceuticals, 2021).
Values after ≈ are worked out from the molar mass of the structure shown. Values joined by “and” are separate entries in the source; they are usually repeats but may differ in a detail not shown here. Equal entries are not always repeated. Where two headings read alike, the source gives them in different places.

Columns and labels:
[1] = in vitro; settings: human; for IC50 at 24 h: HepG2 cells
Description: (§1) Cytotoxicity of the tested compounds was measured using the standard hepatic cell line HepG2. The used CellTiter 96® assay is based on the reduction of tetrazolium dye (MTS) in living cells to formazan, which is then determined colorimetrically.

[2] = tested on: Acinetobacter baumannii ATCC 19606; test: Antibacterial microdilution broth method (EUCAST); format: cell-based
[3] = tested on: Escherichia coli ATCC 25922; test: Antibacterial microdilution broth method (EUCAST); format: cell-based
[4] = tested on: Candida tropicalis ATCC 750; test: microbe, parasite or virus in culture; format: cell-based
[5] = tested on: Klebsiella pneumoniae ATCC 10031; settings: for MIC KP 24 h: 24 h incubation; for MIC KP 48 h: 48 h incubation
[6] = in vitro; settings: human
[7] = target: BuChE from equine serum (EqBuChE) (Equus caballus, UniProt P81908); test: biochemical
[8] = tested on: Candida parapsilosis ATCC 22019; test: microbe, parasite or virus in culture; format: cell-based; settings: Lodderomyces parapsilosis
[9] = tested on: Staphylococcus epidermidis ATCC 12228; test: Antibacterial microdilution broth method (EUCAST); format: cell-based
[10] = tested on: HepG2 cells
Description: as §1

[11] = tested on: Staphylococcus aureus ATCC 29213; test: Antibacterial microdilution broth method (EUCAST); format: cell-based
[12] = tested on: HepG2 cells; test: LDH release assay (CytoTox 96), membrane integrity; settings: read-out: EC50 LDH release assay
[13] = tested on: Trichophyton interdigitale ATCC 9533; test: microbe, parasite or virus in culture; format: cell-based
[14] = tested on: Pseudomonas aeruginosa ATCC 27853; test: Antibacterial microdilution broth method (EUCAST); format: cell-based
[15] = target: AChE from electric eel (EeAChE) (Electrophorus electricus, UniProt O42275); test: biochemical; format: biochemical
[16] = tested on: Enterococcus faecalis ATCC 29212; test: Antibacterial microdilution broth method (EUCAST); format: cell-based
[17] = tested on: Candida krusei ATCC 6258; test: microbe, parasite or virus in culture; format: cell-based; settings: Pichia kudriavzevii
[18] = tested on: methicillin-resistant Staphylococcus aureus ATCC 43300; test: Antibacterial microdilution broth method (EUCAST); format: cell-based; settings: ATCC 43300 / MRSA
[19] = tested on: Candida albicans ATCC 24443; test: microbe, parasite or virus in culture; format: cell-based
[20] = tested on: eight human pathogenic fungi; test: Antifungal microdilution broth method, whole panel; format: cell-based; settings: not reported in Table 2, read-out: MIC, all fungal strains tested
[21] = tested on: four Gram-positive and four Gram-negative bacterial strains; test: Antibacterial microdilution broth method, whole panel; format: cell-based
[22] = ATCC19606, 24 h, read-out: MIC ACI 24 h
[23] = ATCC19606, 48 h, read-out: MIC ACI 48 h
[24] = ATCC25922, 24 h, read-out: MIC EC 24 h
[25] = ATCC25922, 48 h, read-out: MIC EC 48 h
[26] = ATCC750, 24 h, read-out: MIC CT 24 h
[27] = ATCC750, 48 h, read-out: MIC CT 48 h
[28] = ATCC22019, 24 h, read-out: MIC CP 24 h
[29] = ATCC22019, 48 h, read-out: MIC CP 48 h
[30] = ATCC12228, 24 h, read-out: MIC SE 24 h
[31] = ATCC12228, 48 h, read-out: MIC SE 48 h
[32] = ATCC29213, 24 h, read-out: MIC SA 24 h
[33] = ATCC29213, 48 h, read-out: MIC SA 48 h
[34] = ATCC9533, 72 h, read-out: MIC TI 72 h
[35] = ATCC9533, 120 h, read-out: MIC TI 120 h
[36] = ATCC27853, 24 h, read-out: MIC PA 24 h
[37] = ATCC27853, 48 h, read-out: MIC PA 48 h
[38] = ATCC29212, 24 h, read-out: MIC EF 24 h
[39] = ATCC29212, 48 h, read-out: MIC EF 48 h
[40] = ATCC6258, 24 h, read-out: MIC CK 24 h
[41] = ATCC6258, 48 h, read-out: MIC CK 48 h
[42] = ATCC24443, 24 h, read-out: MIC CA 24 h
[43] = ATCC24443, 48 h, read-out: MIC CA 48 h
[44] = mean ± SD, n = three independent experiments, BTCh 40 µM, read-out: IC50 BuChE
[45] = read-out: IC50 cytotoxicity towards HepG2 cell line, CellTiter 96, 24 h incubation
[46] = mean ± SD, n = three independent experiments, ATCh 40 µM, read-out: IC50 AChE
[47] = read-out: MIC, all bacterial strains tested

Chain of AChE from electric eel (EeAChE) (O42275 24-633): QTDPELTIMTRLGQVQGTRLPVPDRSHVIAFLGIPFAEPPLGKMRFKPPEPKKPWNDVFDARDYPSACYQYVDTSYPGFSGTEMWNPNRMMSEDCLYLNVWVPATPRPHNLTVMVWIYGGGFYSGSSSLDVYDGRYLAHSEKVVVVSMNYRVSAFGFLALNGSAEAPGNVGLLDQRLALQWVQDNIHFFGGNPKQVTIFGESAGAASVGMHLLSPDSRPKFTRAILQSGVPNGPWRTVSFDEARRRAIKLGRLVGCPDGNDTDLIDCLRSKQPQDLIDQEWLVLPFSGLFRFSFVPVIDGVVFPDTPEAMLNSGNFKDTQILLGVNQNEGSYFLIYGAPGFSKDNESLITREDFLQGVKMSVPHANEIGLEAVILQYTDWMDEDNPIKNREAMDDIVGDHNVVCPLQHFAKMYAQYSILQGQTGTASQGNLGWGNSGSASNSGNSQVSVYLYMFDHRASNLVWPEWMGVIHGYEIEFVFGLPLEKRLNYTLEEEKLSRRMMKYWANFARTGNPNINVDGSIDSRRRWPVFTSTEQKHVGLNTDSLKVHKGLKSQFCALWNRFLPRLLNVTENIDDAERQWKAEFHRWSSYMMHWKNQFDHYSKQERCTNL
Chain of BuChE from equine serum (EqBuChE) (P81908 whole entry): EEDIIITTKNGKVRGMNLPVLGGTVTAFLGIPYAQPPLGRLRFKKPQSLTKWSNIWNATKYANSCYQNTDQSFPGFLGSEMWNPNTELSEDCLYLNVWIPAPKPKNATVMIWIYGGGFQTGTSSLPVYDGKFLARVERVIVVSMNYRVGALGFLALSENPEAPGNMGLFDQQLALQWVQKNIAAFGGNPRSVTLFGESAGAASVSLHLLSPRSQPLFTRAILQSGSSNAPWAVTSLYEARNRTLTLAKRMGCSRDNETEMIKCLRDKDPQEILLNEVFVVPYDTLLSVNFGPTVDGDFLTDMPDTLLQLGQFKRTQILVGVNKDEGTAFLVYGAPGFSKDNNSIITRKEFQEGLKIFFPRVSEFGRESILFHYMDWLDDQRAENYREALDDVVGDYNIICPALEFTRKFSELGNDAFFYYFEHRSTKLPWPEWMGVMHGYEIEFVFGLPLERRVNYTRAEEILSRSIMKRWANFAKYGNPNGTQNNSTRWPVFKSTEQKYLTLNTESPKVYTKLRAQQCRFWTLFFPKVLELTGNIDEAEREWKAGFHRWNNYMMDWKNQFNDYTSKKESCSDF

Structure (SMILES)	IC50 at 24 h [1] [µM]	MIC [2, 22] [µM]	MIC [2, 23] [µM]	MIC [3, 24] [µM]	MIC [3, 25] [µM]	MIC KP 24 h [5] [µM]	MIC KP 48 h [5] [µM]	EC50 at 24 h ([6]; HepG2 cells) [µM]	MIC [9, 30] [µM]	MIC [9, 31] [µM]	MIC [11, 32] [µM]	MIC [11, 33] [µM]	MIC [14, 36] [µM]	MIC [14, 37] [µM]	MIC [16, 38] [µM]	MIC [16, 39] [µM]	MIC ([18]; 24 h, read-out: MIC MRSA 24 h) [µM]	MIC ([18]; 48 h, read-out: MIC MRSA 48 h) [µM]	IC50 [7, 44]	EC50 ([12]; HepG2, 24 h incubation) [µM]	further results
Cl.N=C(NN)N/N=C/c1cc(I)cc(I)c1O [Compound 2e, (E)-Hydrazineyl[2-(2-hydroxy-3,5-diiodobenzylidene)hydrazineyl]methaniminium chloride]	> 100	> 125	> 125	> 125	> 125	>125	>125	> 100	31.2	31.2	62.5	125	> 125	> 125	> 125	> 125	125	125			MIC [4, 26]: 125 µM; MIC [4, 27]: 125 µM; Type of inhibition of BuChE [7]: mixed inhibition; IC50 ([7]; read-out: IC50 BuChE): 1.69 ± 0.17 µM; MIC [8, 28]: 125 µM; MIC [8, 29]: 125 µM; IC50 ([10]; read-out: IC50 cytotoxicity towards HepG2 cell line): 120 µM; EC50 [12]: 132 µM; MIC [13, 34]: 125 µM; MIC [13, 35]: 125 µM; IC50 [15]: 28.2 ± 0.98 µM; MIC [17, 40]: 125 µM; MIC [17, 41]: 125 µM; MIC [19, 42]: 125 µM; MIC [19, 43]: 125 µM
CC(=O)Oc1c(I)cc(I)cc1/C=N/NC(=N)N [Compound 2a, (E)-2-[(2-Carbamimidoylhydrazineylidene)methyl]-4,6-diiodophenyl acetate]	> 29	500	500	250	250	250	250	> 20	250	250	125	125	> 500	> 500	250	250	125	125	< 20 µM and 4.52 µM	30.4	MIC [4, 26]: 500 µM; MIC [4, 27]: 500 µM; Type of inhibition of BuChE [7]: mixed inhibition; MIC [8, 28]: 500 µM; MIC [8, 29]: 500 µM; IC50 [10, 45]: 31.3 µM; MIC [13, 34]: 62.5 µM; MIC [13, 35]: 125 µM; Selectivity AChE/BuChE [15]: 4.54; Type of inhibition of AChE [15]: mixed inhibition; IC50 [15, 46]: 20.5 ± 0.48 µM; MIC [17, 40]: 500 µM; MIC [17, 41]: 500 µM; MIC [19, 42]: 125 µM; MIC [19, 43]: 125 µM
NC(N)=NN=C1C(=O)Nc2ccccc21 [Compound 1p, 2-(2-Oxoindolin-3-ylidene)hydrazine-1-carboximidamide]	> 500							> 100											< 20 µM and 17.5 µM	130	MIC [20]: ≥ 500 µM; Type of inhibition of BuChE [7]: mixed inhibition; Cytotoxicity in HepG2 in words ([10]; range of tested concentrations up to 500 µM): no significant cytotoxicity; MIC [21, 47]: ≥ 500 µM; Selectivity AChE/BuChE [15]: 1.03; Type of inhibition of AChE [15]: mixed inhibition; IC50 [15, 46]: 17.9 ± 0.9 µM
[H]/N=C(\N)NN=Cc1ccc([N+](=O)[O-])o1 [Compound 1n, (E)-2-[(5-Nitrofuran-2-yl)methylene]hydrazine-1-carboximidamide]		250 (≈ 49.3 µg/mL)	500 (≈ 98.6 µg/mL)	62.5 (≈ 12.3 µg/mL)	125 (≈ 24.6 µg/mL)	250 (≈ 49.3 µg/mL)	250 (≈ 49.3 µg/mL)		62.5 (≈ 12.3 µg/mL)	125 (≈ 24.6 µg/mL)	62.5 (≈ 12.3 µg/mL)	125 (≈ 24.6 µg/mL)	500 (≈ 98.6 µg/mL)	500 (≈ 98.6 µg/mL)	500 (≈ 98.6 µg/mL)	500 (≈ 98.6 µg/mL)	125 (≈ 24.6 µg/mL)	125 (≈ 24.6 µg/mL)		3.55	IC50 [1]: < 11 µM; MIC [20]: ≥ 500 µM; EC50 at 24 h [6]: < 6 µM; IC50 ([7]; IC50 BuChE): 204 ± 13.2 µM; IC50 ([10]; human): 10.4 µM; IC50 [15]: 24.2 ± 0.75 µM; Selectivity AChE/BuChE [15]: 0.12; Type of inhibition of AChE [15]: mixed inhibition
[H]/N=C(\N)NN=Cc1cc(I)cc(I)c1 [Compound 2c, (E)-2-(3,5-Diiodobenzylidene)hydrazine-1-carboximidamide]	< 11	250 (≈ 103 µg/mL)	250 (≈ 103 µg/mL)	62.5 (≈ 25.9 µg/mL)	62.5 (≈ 25.9 µg/mL)	62.5 (≈ 25.9 µg/mL)	62.5 (≈ 25.9 µg/mL)	< 6	7.8 (≈ 3.23 µg/mL)	7.8 (≈ 3.23 µg/mL)	15.6 (≈ 6.47 µg/mL)	15.6 (≈ 6.47 µg/mL)	250 (≈ 103 µg/mL)	250 (≈ 103 µg/mL)	31.2 (≈ 12.9 µg/mL)	31.2 (≈ 12.9 µg/mL)	15.6 (≈ 6.47 µg/mL)	15.6 (≈ 6.47 µg/mL)	85.5 ± 1.46 µM	5.44	MIC [20]: ≥ 500 µM; IC50 [10, 45]: 9.84 µM; MIC ([21]; read-out: MIC against staphylococci): 31.2 to 125 µM (≈ 12.9 to 51.7 µg/mL); Selectivity AChE/BuChE [15]: 0.34; IC50 [15, 46]: 29 ± 1.19 µM
[H]/N=C(\N)NN=Cc1cc(I)cc(I)c1O [Compound 1m, (E)-2-(2-Hydroxy-3,5-diiodobenzylidene)hydrazine-1-carboximidamide]	> 29							> 20											< 20 µM and 3.57 µM	21.3	MIC [20]: ≥ 500 µM; IC50 [10, 45]: 56.5 µM; MIC [21, 47]: ≥ 500 µM; IC50 [15, 46]: 29 ± 2.49 µM
